Experimental data from US11266768B2, “Stretch release drug delivery materials” (TRUSTEES OF BOSTON UNIVERSITY, priority 2013, dated 2022).
Entries after “also recorded” stand apart in the source; their conditions may differ.

Columns and labels:
[1] = Strain-modulated release of SN-38 from mechanoresponsive drug delivery device (fluorimetry); assay type: physicochemical; conditions: for release of SN-38 from device: PBS or RPMI with 10% v/v fetal bovine serum
Procedure: SN-38 from release media was quantified by mixing one (1) part release medium (containing drug) in three (3) parts 20 mM borate buffer (pH=9), which converts SN-38 to the carboxylate form. Fluorescence was detected by fluorimetry at an excitation of 380 nm and emission of 550 nm, as previously described (Yohe, J Controlled Release 2012, 162). (FIG. 42)
A drug delivery device with incorporated SN-38 was fabricated in accordance with Example 2, above. The ends of the material were placed between two pieces of foam tape and further secured by applying glue to the ends in contact with the foam tape. The ends were then placed between the grips of a tensile tester machine (Instron 5848 Microtester) and the sample length between the grips was recorded. A water bath was placed under the sample arms, and the drug delivery device was submerged beneath 300 mL of phosphate-buffered saline (PBS) or cell media, RPMI with 10% v/v fetal bovine serum. A magnetic stir bar was also added to the bath to ensure thorough mixing during the study. The Instron software was then programmed to extend the sample arms at a constant rate of 2 mm/s until a travel distance equivalent to thirty percent of the initial sample length was reached (corresponding to 30% strain), or equivalent to the entire initial sample length was reached (corresponding to 100% strain). Once the device was stretched, aliquots of release medium were sampled at predetermined time points. The percentage of SN-38 released into the surrounding aqueous environment was calculated using fluorimetry, as described in Example 31. Devices were also placed on the tensile tester, but in this instance they were not stretched (0% strain), to serve as control experiments. Release of the chemotherapy agent from devices subjected to 100% strain and more moderate from devices subjected to 30% strain. […] (FIG. 43)

[2] = tested on: OE33, oesophageal cancer; experiment: OE33 cell viability with SN-38 release aliquots (MTS Assay); assay type: cell-based; conditions: release aliquots in RPMI with 10% fetal bovine serum incubated 96 hours
Excerpt: By altering the amount of strain, the rate of SN-38 release can be controlled in order to provide a range of concentrations at fixed time points. […] The concentration of SN-38 can be either lower or higher than the IC50 value such that a similar curve can be created using force and/or strain, rather than, or in addition to, concentration. […] Because SN-38 is a toxic chemotherapeutic drug, the amount of SN-38 released correlates with cell viability. […] (FIG. 44)

[3] = Tension-triggered release of cisplatin from mechanoresponsive drug delivery device (atomic absorption); assay type: physicochemical; conditions: for release of cisplatin from device: PBS
Excerpt: The amount of cisplatin released from the drug delivery system into the surrounding aqueous environment was quantified through flameless atomic absorption spectroscopy (also known as graphite furnace atomic absorption or electrothermal absorption (Varian AA240Z Atomic Absorption)). The platinum atom has a strong absorbance band at 265.9 nm, and was used for detecting the presence of platinum (the major component of the anticancer agent cisplatin) in the release medium. A standard curve was first created, and aliquots (sampled at different timepoints) from the release medium with unknown cisplatin concentrations were determined from this standard curve. The concentration values were then converted to amount (mass) of cisplatin released by multiplying the concentration by the total volume of solution into which the agent released. The amount of cisplatin actually released was then divided by the amount of cisplatin initially loaded into the device, to get a percentage of cisplatin released as a function of time.
A drug delivery device with incorporated cisplatin was fabricated in accordance with Example 1 above. The ends of the material were placed between two pieces of foam tape and further secured by applying glue to the ends in contact with the foam tape. The ends were then placed between the grips of a tensile tester machine (Instron 5848 Microtester) and the sample length between the grips was recorded. A water bath was placed under the sample arms, and the drug delivery device was submerged beneath 300 mL of phosphate-buffered saline (PBS). A magnetic stir bar was also added to the bath to ensure thorough mixing during the study. The Instron software was then programmed to extend the sample arms at a constant rate of 2 mm/s until a travel distance equivalent to the initial sample length was reached (corresponding to 100% strain). […] The percentage of cisplatin released into the surrounding aqueous environment was calculated using flameless atomic absorption spectroscopy, as described in Example 16. […]

[4] = tested on: OE33 cells; experiment: OE33 cell viability with cisplatin release aliquots (MTS Assay); assay type: cell-based; conditions: release aliquots incubated 72 hours with OE33 cells
Procedure: Aliquots from release (FIG. 39) were incubated for 72 hours with OE33 cells, an oesophageal cell line. Cell viability from incubation of release aliquots over two hours were determined by MTS Assay, left. Cell viability at the 30-minute release at various strain magnitude are shown, right (p<0.05 for 30%, 100% when compared to 0%).
Cisplatin is used in the treatment of esophageal cancer. […] They used an esophageal cell line, OE33 (Sigma), to show the efficacy of cisplatin released from the tension-modulated drug delivery device, and that a dose-response curve can be generated using force and/or strain as the means to alter the dose. […] By altering the amount of force, the rate of cisplatin release can be controlled in order to provide a range of concentrations at fixed time points. The concentration of cisplatin can be either lower or higher than the IC50 value such that a similar curve may be created using force and/or strain on the x-axis, rather than, or in addition to, concentration.
Cisplatin can be loaded into these systems as described in Example 14. Cisplatin can be used to achieve dose-dependent tumor cell death, and also strain-dependent cell death. A strain-dependent release of cisplatin, a small hydrophilic drug molecule, can be seen in FIG. 39. Because cisplatin is a cytotoxic chemotherapeutic drug, the amount of cisplatin released correlates with cell viability (FIG. 40).

[5] = tested on: OE33; conditions: 72 hours of incubation; read-out: IC50 of cisplatin with OE33; cited from earlier work
[6] = Tension-triggered release of FITC-BSA from mechanoresponsive drug delivery device (fluorescence); assay type: physicochemical; conditions: PBS with 10% serum
Excerpt: The amount of fluorescein isothiocyanate-labeled bovine serum albumin (FITC-BSA) released from the drug delivery system into the surrounding aqueous environment was quantified through fluorescence spectrophotometry. The fluorescein isothiocyanate is a fluorophore that is maximally excited around 495 nm and maximally emits at around 520 nm. The fluorescence intensity emitted at 520 nm was used to construct a standard curve of fluorescence versus FITC-BSA concentration. Unknown FITC-BSA concentrations in the release medium were calculated from this standard curve. The concentration values were then converted to amount (mass) of FITC-BSA released by multiplying by the concentration values by the total volume of solution into which the protein released. The amount of FITC-BSA actually released was then divided by the amount of FITC-BSA initially loaded into the device, to get a percentage of protein released as a function of time. (FIGS. 19-21)
A drug delivery device with incorporated fluorescein isothiocyanate-labeled bovine serum albumin (FITC-BSA) was fabricated in accordance with Example 1 above. The ends of the material were placed between two pieces of foam tape and further secured by applying glue to the ends in contact with the foam tape. The ends were then placed between the grips of a tensile tester machine (Instron 5848 Microtester) and the sample length between the grips was recorded. A water bath was placed under the sample arms, and the drug delivery device was submerged beneath 300 mL of phosphate-buffered saline (PBS) with 10% serum (fetal bovine serum). A magnetic stir bar was also added to the bath to ensure thorough mixing during the study. The Instron software was then programmed to extend the sample arms at a constant rate of 2 mm/s until a travel distance equivalent to the initial sample length was reached (corresponding to 100% strain). Once the device was stretched, aliquots of release medium were sampled at predetermined time points. The percentage of protein released into the surrounding aqueous environment was calculated using fluorescence spectrophotometry, as described in Example 13 above. Devices were also placed on the tensile tester, but in this instance they were not stretched (0% strain), to serve as control experiments. Release of the fluorescent protein from devices subjected to strain was rapid, and was achieved only under the application of strain. […] (FIG. 24)
A drug delivery device with incorporated fluorescein isothiocyanate-labeled bovine serum albumin (FITC-BSA) was fabricated in accordance with Example 1 above. The coating was electrosprayed using a tip-to-collector distance of 15 cm. The ends of the material were placed between two pieces of foam tape and further secured by applying glue to the ends in contact with the foam tape. The ends were then placed between the grips of a tensile tester machine (Instron 5848 Microtester) and the sample length between the grips was recorded. A water bath was placed under the sample arms, and the drug delivery device was submerged beneath 300 mL of phosphate-buffered saline (PBS) with 10% serum (fetal bovine serum). A magnetic stir bar was also added to the bath to ensure thorough mixing during the study. The Instron software was then programmed to extend the sample arms at a constant rate of 2 mm/s until a travel distance equivalent to half of the initial sample length was reached (corresponding to 50% strain), or equivalent to the entire initial sample length was reached (corresponding to 100% strain). Once the device was stretched, aliquots of release medium were sampled at predetermined time points. The percentage of protein released into the surrounding aqueous environment was calculated using fluorescence spectrophotometry, as described in Example 13 above. Devices were also placed on the tensile tester, but in this instance they were not stretched (0% strain) to serve as a control experiment. […]

[7] = tested on: type I collagen in fibroblasts; conditions: cited from earlier work

CCc1c2c(nc3ccc(O)cc13)-c1cc3c(c(=O)n1C2)COC(=O)[C@]3(O)CC [SN-38, 7-ethyl-10-hydroxycamptothecin]
dependence of SN-38 release on strain [1]: strain-dependent | release of SN-38 from device ([1]; 0% strain): did not release appreciable amounts of drug | release of SN-38 from device ([1]; 30% strain): more moderate | cell viability with released SN-38 [2]: deliver an efficacious amount of SN-38 to change the cell viability; also recorded: significant decreases in viability with increasing strain

N.N.[Cl][Pt][Cl] [cisplatin, Cis-diamminedichloroplatinum(II)]
release of cisplatin from device ([3]; 100% strain): rapid release | dependence of cisplatin release on strain ([3]; cell media solution (RPMI) with fetal bovine serum (10% v/v)): strain-dependent; also recorded: tension-dependent | release of cisplatin from device ([3]; no applied tension (0% strain)): did not release appreciable amounts of drug; also recorded: minimal release | cell viability with released cisplatin [4]: deliver an efficacious amount of cisplatin to change the cell viability | IC50 [5]: 2170 nM

FITC-BSA: Fluorescein isothiocyanate-labeled bovine serum albumin, model protein
release of FITC-BSA from device ([6]; 0% strain, dry coating, tip-to-collector distance 15 cm): did not release appreciable amounts of protein; also recorded: minimal release | release of FITC-BSA from device ([6]; 50% strain, dry coating, tip-to-collector distance 15 cm): more moderate; also recorded: modest release profile | release of FITC-BSA from device ([6]; 100% strain): rapid release | release of FITC-BSA from device ([6]; 100% strain, listed as protein): rapid drug release | release of FITC-BSA from device ([6]; 100% strain, dry coating, tip-to-collector distance 15 cm): most rapid; also recorded: rapid release | release of FITC-BSA from device ([6]; no applied tension (0% strain)): did not release appreciable amounts of protein; also recorded: minimal release | release of FITC-BSA from device ([6]; no applied tension (0% strain), listed as protein): did not release appreciable amounts of drug

TNF-α
effect on synthesis of type I collagen [7]: inhibit synthesis of type I collagen
